Data set [1] can be described thus: In vitro blood incubation of amino acid prodrugs, mouse blood. The format is in vitro ADME, Mice. As to conditions: 2 μM prodrug. As for the experimental part:
(§1) Compounds 5, 6, 7 and 8 (2 μM) were incubated with fresh human blood (conducted in duplicate), rat and mouse blood. Reaction was started by the addition of compound 5, and was stopped at predefined time points (0, 5, 10, 15, 30, 45 and 60 minutes) by removing one aliquot from the incubation mixture (0.1 mL per aliquot) and adding it to 3-fold volume of stop reagent (ice-cold acetonitrile, 0.3 mL). Precipitated protein was removed by centrifugation. Prodrug compound 5-8 and parent compound 1 or 3 concentrations in the supernatant were analyzed by LC/MS/MS.

Data set [2] can be described thus: In vitro blood incubation of amino acid prodrugs, rat blood. The data set is classed as in vitro ADME. Particulars: 2 μM prodrug. As for the experimental part: as §1
A short description of data set [3]: In vitro blood incubation of amino acid prodrugs, fresh human blood. The format is in vitro ADME. Particulars: 2 μM prodrug. As to the method:
as §1

Data set [4] is described as follows: Rat PK of amino acid prodrug after IV/PO administration. The data set is classed as in vivo.
The subject of data set [5] is S. aureus Smith. Kind of data set: MIC, S. aureus Smith. The data set is classed as cell-based, Staphylococcus aureus. Particulars: table of animal models of infection. As to the method:
(§2) Susceptibility tests can be used to quantitatively measure the in vitro activity of an antimicrobial agent against a given bacterial isolate. Compounds are tested for in vitro antibacterial activity by a micro-dilution method. Minimal Inhibitory Concentration (MIC) is determined in 96 well microtiter plates utilizing the appropriate broth medium for the observed bacterial isolates. Antimicrobial agents are serially diluted (2-fold) in DMSO to produce a concentration range from about 64 μg/ml to about 0.03 μg/ml. The diluted compounds (2 μl/well) are then transferred into sterile, uninoculated medium (0.2 mL) by use of a 96 fixed tip-pipetting station. The inoculum for each bacterial strain is standardized to approximately 5×10^5 CFU/mL by optical comparison to a 0.5 McFarland turbidity standard. The plates are inoculated with 10 μl/well of adjusted bacterial inoculum. The 96 well plates are covered and incubated at 35±2° C. for 24 hours in ambient air environment. Following incubation, plate wells are visually examined by Optical Density measurement for the presence of growth (turbidity). The lowest concentration of an antimicrobial agent at which no visible growth occurs is defined as the MIC.
(§3) All in vitro testing follows the guidelines described in the Approved Standards M7-A7 protocol, published by the Clinical Laboratory Standards Institute (CLSI).

Data set [6] has as its system S. aureus Smith. Put plainly: Systemic mouse protection model (MPT), S. aureus Smith. The data set is classed as in vivo. Particulars: Staphylococcus aureus, MPT.
For data set [7], the system named is S. pneumoniae 7701. Kind of data set: MIC, S. pneumoniae 7701. The data set is classed as cell-based. As to the method:
as §2, §3

Data set [8] deals with H. influenzae 1435. Kind of data set: MIC, H. influenzae 1435. The format is cell-based, Haemophilus influenzae. The arrangement: unit not given beside the values. As for the experimental part: as §2, §3
Data set [9] deals with H. influenzae S1280. Kind of data set: MIC, H. influenzae S1280. The data set is classed as cell-based, Haemophilus influenzae. Set-up: unit not given beside the values. As to the method: as §2, §3
The subject of data set [10] is H. influenzae 3643. Kind of data set: MIC, H. influenzae 3643. The format is cell-based, Haemophilus influenzae. The arrangement: unit not given beside the values. As for the experimental part: as §2, §3
Data set [11] relates to S. pneumoniae 7701. Kind of data set: Mouse protection test model (MPT), S. pneumoniae 7701. The format is in vivo. Particulars: Streptococcus pneumoniae.
Data set [12] relates to H. influenzae 1435. Put plainly: Rat lung infection model (RLI), H. influenzae 1435. As to conditions: Haemophilus influenzae, read-out: ED50 (2Log Red for RLI). The format is in vivo.
Data set [13] concerns H. influenzae S1280. Kind of data set: Rat lung infection model (RLI), H. influenzae S1280. As to conditions: Haemophilus influenzae, read-out: ED50 (2Log Red for RLI). The data set is classed as in vivo.
Data set [14] deals with H. influenzae 3643. Kind of data set: Rat lung infection model (RLI), H. influenzae 3643. The data set is classed as in vivo. Particulars: Haemophilus influenzae, read-out: ED50 (2Log Red for RLI).
The mark [15] stands for this setting: plasma, 10 mg/kg IV, prodrug itself measured.

SMILES strings stand for the structures. “Also recorded” adds a separate entry of the source.

For the molecule `CCC(=O)/N=C1\[C@H](C)C[C@@]2(C)OC/C(=N/OCc3ccc(-c4nc(NC(=O)[C@@H](N)CC(C)C)cs4)cn3)CO[C@H]([C@H]1C)[C@](C)(O)[C@@H](CC)OC(=O)[C@@](C)(F)C(=O)[C@H](C)[C@H]2O[C@@H]1O[C@H](C)C[C@H](N(C)C)[C@H]1O` [Compound 6], in data set [1], the “% remaining after 60 min, Mice” value was 5.6%. In addition, in [2], the “% remaining after 60 min, Rat” value was determined as 9.3%. In data set [3], the “% remaining after 60 min, Human” value was determined as 8.3%. Also, in [4] (10 mg/kg IV, prodrug itself measured), the ClF amounted to 788 mL/min/kg. In addition, in [4] (10 mg/kg PO, prodrug itself, 10 mg/kg), the “Prodrug in plasma after oral administration” value is given as “No prodrug was detected in the plasma; also recorded: None detected in plasma via oral route-”. Besides, in data set [4] (after oral (po) and IV administration), the “Conversion to the parent amino derivative (Compound 1)” value was “rapidly converted to the parent amino derivative”. Besides, in data set [4] (setting [15]), the AUC(0-inf) stood at 210 ng·h/mL, the Cmax was determined as 310 ng/mL, the Tmax was 4.8 min and the Vd amounted to 13.3 L/kg. Further, the half-life in [4] (setting [15]) was 12 min.
Take `CC[C@H]1OC(=O)[C@H](C)C(=O)[C@H](C)[C@@H](O[C@@H]2O[C@H](C)C[C@H](N(C)C)[C@H]2O)[C@](C)(OC)C[C@@H](C)C(=O)[C@H](C)[C@H]2N(CCCCn3cnc(-c4cccnc4)c3)C(=O)O[C@]12C` [Telithromycin, reference compound]: the MIC in the data set on S. aureus Smith [5] worked out at 0.13; against S. pneumoniae 7701 [7], 0.25; in the data set on H. influenzae 1435 [8], 2; in the data set on H. influenzae S1280 [9] it was 2; against H. influenzae 3643 [10] it was 4. Moreover, the ED50 is 11 mg/kg in the data set on S. aureus Smith [6]; 10 mg/kg with S. pneumoniae 7701 [11]; 49 mg/kg in the data set with H. influenzae 1435 [12]; 56 mg/kg with H. influenzae S1280 [13]; 78 mg/kg with H. influenzae 3643 [14].

Broadly, the AUC(0-inf) is the area under the concentration-time curve extrapolated to infinity. What is called Cmax is the peak of the concentration-time curve. The term Tmax denotes the time at which the peak concentration occurs. One may read the half-life as how long it takes for the measured level to halve. What is called ED50 is the dose that gives a 50% effect, or the effect in half of the subjects.

The values above are taken from patent US20090075915A1, “6,11-BICYCLOLIDES: BRIDGED BIARYL MACROLIDE DERIVATIVES” (priority 2007, published 2009).
